For eight molecules, pest or weed control, plant injury and Corn plant response rating (crop injury, 0 = no effect, 100 = complete kill) results are on record in patent publication US12077503B2, “Substituted cyclic amides and their use as herbicides” (FMC CORPORATION, priority 2015, dated 2024).

SMILES strings stand for the structures. Like-named read-outs stand apart in the source and are kept apart here.

Assay in all cases: Test A postemergence
Common to all, as to type: in vivo

Assay [1] deals with barnyardgrass (Echinochloa crus-galli). Conditions: Echinochloa crus-galli, post-emergence, 240 h; for pest or weed control at 125 g/ha: 125 g ai/ha; for pest or weed control at 500 g/ha: 500 g ai/ha. An outline of the steps: (§1)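 Seeded soil received test chemicals as a preemergence directed spray, and seedlings at one to two leaves, 2–10 cm tall, received them postemergence, in a non-phytotoxic, surfactant-containing solvent mixture. Pots were held in a greenhouse for approximately 10 d, then rated for injury from 0, no effect, to 100, complete control.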

The subject of assay [2] is blackgrass (Alopecurus myosuroides). Conditions: Alopecurus myosuroides, post-emergence, 240 h; for pest or weed control at 125 g/ha: 125 g ai/ha; for pest or weed control at 500 g/ha: 500 g ai/ha. The procedure, abridged:
as §1

Assay [3] relates to corn (Zea mays). Particulars: Zea mays, post-emergence, 240 h; for plant injury at 125 g/ha / Corn plant response rating (crop injury, 0 = no effect, 100 = complete kill) at 125 g/ha: 125 g ai/ha; for plant injury at 500 g/ha: 0 is no effect, 100 is complete control, read-out: Corn plant response rating; for Corn plant response rating (crop injury, 0 = no effect, 100 = complete kill) at 125 g/ha: visual injury after approximately 10 d. The procedure, abridged:
as §1

Assay [4] relates to ragweed (common ragweed, Ambrosia elatior). Particulars: Ambrosia artemisiifolia, post-emergence, 240 h; for pest or weed control at 125 g/ha: 125 g ai/ha; for pest or weed control at 500 g/ha: 500 g ai/ha. The procedure, abridged:
as §1

Assay [5] has as its system ryegrass, Italian (Italian ryegrass, Lolium multiflorum). Particulars: Lolium multiflorum, post-emergence, 240 h; for pest or weed control at 125 g/ha: 125 g ai/ha; for pest or weed control at 500 g/ha: 500 g ai/ha. The procedure, abridged:
as §1

Where [6] appears, read: postemergence, visual injury vs untreated controls after approx. 10 d, 0 = no effect, 100 = complete control, read-out: Barnyardgrass plant response rating (0 to 100 scale).
The mark [7] stands for this setting: postemergence, 0 to 100 scale, 0 is no effect, 100 is complete control, read-out: Barnyardgrass plant response rating.
[8] abbreviates: postemergence, visual injury vs untreated controls after approx. 10 d, 0 = no effect, 100 = complete control, read-out: Blackgrass plant response rating (0 to 100 scale).
Where [9] appears, read: postemergence, 0 to 100 scale, 0 is no effect, 100 is complete control, read-out: Blackgrass plant response rating.
Setting [10] is: postemergence, visual injury vs untreated controls after approx. 10 d, 0 = no effect, 100 = complete control, read-out: Corn plant response rating (0 to 100 scale).
[11] abbreviates: 500 g ai/ha, postemergence, 0 to 100 scale.
The mark [12] stands for this setting: postemergence, visual injury vs untreated controls after approx. 10 d, 0 = no effect, 100 = complete control, read-out: Ragweed plant response rating (0 to 100 scale).
The mark [13] stands for this setting: postemergence, 0 to 100 scale, 0 is no effect, 100 is complete control, read-out: Ragweed plant response rating.
The mark [14] stands for this setting: postemergence, visual injury vs untreated controls after approx. 10 d, 0 = no effect, 100 = complete control, read-out: Ryegrass, Italian plant response rating (0 to 100 scale).
[15] abbreviates: postemergence, 0 to 100 scale, 0 is no effect, 100 is complete control, read-out: Ryegrass, Italian plant response rating.
Setting [16] is: Postemergence, visual injury after approximately 10 d, 0 to 100 scale where 0 is no effect and 100 is complete control, read-out: Plant response rating, Barnyardgrass.
Where [17] appears, read: Postemergence, visual injury after approximately 10 d, 0 to 100 scale where 0 is no effect and 100 is complete control, read-out: Plant response rating, Blackgrass.
Where [18] appears, read: Postemergence, 0 to 100 scale where 0 is no effect and 100 is complete control.
Where [19] appears, read: Postemergence, visual injury after approximately 10 d, 0 to 100 scale where 0 is no effect and 100 is complete control, read-out: Plant response rating, Ragweed.
The mark [20] stands for this setting: Postemergence, visual injury after approximately 10 d, 0 to 100 scale where 0 is no effect and 100 is complete control, read-out: Plant response rating, Ryegrass, Italian.

Consider `CSc1ccccc1NC(=O)[C@H]1C(=O)N(C)CC[C@@H]1c1ccc2c(c1)OC(F)(F)O2` [Compound 814], for which the pest or weed control at 125 g/ha in assay [1] (postemergence, visual injury rating after approximately 10 d, read-out: Barnyardgrass plant response rating (0 to 100 scale, 0 no effect, 100 complete control)) amounted to 0%; in assay [2] (postemergence, visual injury rating after approximately 10 d, read-out: Blackgrass plant response rating (0 to 100 scale, 0 no effect, 100 complete control)), 0%; in assay [4] (postemergence, visual injury rating after approximately 10 d, read-out: Ragweed plant response rating (0 to 100 scale, 0 no effect, 100 complete control)), 0%; in assay [5] (postemergence, visual injury rating after approximately 10 d, read-out: Ryegrass, Italian plant response rating (0 to 100 scale, 0 no effect, 100 complete control)), 0%. Besides, the pest or weed control at 31 g/ha in assay [1] (Postemergence, 31 g ai/ha, visual injury after approx. 10 d, 0 to 100 scale, 0 no effect, 100 complete control, read-out: Plant response rating, Barnyardgrass) came out at 0%; in assay [2] (Postemergence, 31 g ai/ha, visual injury after approx. 10 d, 0 to 100 scale, 0 no effect, 100 complete control, read-out: Plant response rating, Blackgrass), 0%; in assay [4] (Postemergence, 31 g ai/ha, visual injury after approx. 10 d, 0 to 100 scale, 0 no effect, 100 complete control, read-out: Plant response rating, Ragweed) it was 0%; in assay [5] (Postemergence, 31 g ai/ha, visual injury after approx. 10 d, 0 to 100 scale, 0 no effect, 100 complete control, read-out: Plant response rating, Ryegrass, Italian), 0%. For the same molecule, the plant injury at 125 g/ha in assay [3] (postemergence, visual injury rating after approximately 10 d, read-out: Corn plant response rating (0 to 100 scale, 0 no effect, 100 complete control)) came to 0%. This molecule also yielded a Corn plant response rating (crop injury, 0 = no effect, 100 = complete kill) at 31 g/ha in assay [3] (Postemergence, 31 g ai/ha, visual injury after approx. 10 d, 0 to 100 scale, 0 no effect, 100 complete control) of 0%.
Consider `CN1C[C@H](c2ccc(C#N)cc2)[C@@H](C(=O)Nc2ccc(F)c(F)c2F)C1=O` [Compound 1229], for which the pest or weed control at 125 g/ha in assay [1] (setting [6]) was 100%; in assay [2] (setting [8]) it was 0%; in assay [4] (setting [12]), 0%; in assay [5] (setting [14]) it was 0%. The pest or weed control at 500 g/ha in assay [1] (setting [7]) amounted to 100%; in assay [2] (setting [9]) it was 40%; in assay [4] (setting [13]), 0%; in assay [5] (setting [15]), 40%. Further, the plant injury at 125 g/ha in assay [3] (setting [10]) worked out at 0%. For the same molecule, the plant injury at 500 g/ha in assay [3] (setting [11]) came to 0%.
In the case of `CN1C[C@H](c2cc(F)cc(C(F)(F)F)c2)[C@@H](C(=O)Nc2cccc(Cl)c2F)C1=O` [Compound 995], the pest or weed control at 125 g/ha in assay [1] (setting [16]) is 60%; in assay [2] (setting [17]), 50%; in assay [4] (setting [19]), 0%; in assay [5] (setting [20]), 30%. The Corn plant response rating (crop injury, 0 = no effect, 100 = complete kill) at 125 g/ha in assay [3] (setting [18]) is 30%.
With `CN1CC[C@H](c2cccc(Cl)c2)[C@@H](C(=O)Nc2ccccc2F)C1=O` [Compound 922], the pest or weed control at 125 g/ha in assay [1] (setting [16]) amounted to 90%; in assay [2] (setting [17]), 0%; in assay [4] (setting [19]), 0%; in assay [5] (setting [20]), 0%. The Corn plant response rating (crop injury, 0 = no effect, 100 = complete kill) at 125 g/ha in assay [3] (setting [18]) was 0%.
With `COc1c(F)ccc([C@H]2CNC(=O)[C@@H]2C(=O)Nc2ccccc2S(C)(=O)=O)c1Cl` [Compound 916], the pest or weed control at 125 g/ha in assay [1] (setting [16]) came to 30%; in assay [2] (setting [17]) it was 0%; in assay [4] (setting [19]), 0%; in assay [5] (setting [20]) it was 0%. The Corn plant response rating (crop injury, 0 = no effect, 100 = complete kill) at 125 g/ha in assay [3] (setting [18]) turned out to be 0%.
On to `CN1C[C@H](c2ccc(C(F)(F)F)cc2)[C@@H](C(=O)Nc2ccccc2C#N)C1=O` [Compound 1379], for which the pest or weed control at 125 g/ha in assay [1] (Postemergence, visual rating about 10 d after treatment, read-out: Barnyardgrass plant response rating (0 to 100 scale, 0 no effect, 100 complete control)) is 100%; in assay [2] (Postemergence, visual rating about 10 d after treatment, read-out: Blackgrass plant response rating (0 to 100 scale)), 20%; in assay [4] (Postemergence, visual rating about 10 d after treatment, read-out: Ragweed plant response rating (0 to 100 scale)), 30%; in assay [5] (Postemergence, visual rating about 10 d after treatment, read-out: Ryegrass, Italian plant response rating (0 to 100 scale)), 30%. Besides, the pest or weed control at 500 g/ha in assay [1] (Postemergence, visual injury, 0 to 100 scale (0 no effect, 100 complete control), approx. 10 d, read-out: Plant response rating, Barnyardgrass) was found to be 100%; in assay [2] (Postemergence, visual injury, 0 to 100 scale (0 no effect, 100 complete control), approx. 10 d, read-out: Plant response rating, Blackgrass) it was 30%; in assay [4] (Postemergence, visual injury, 0 to 100 scale (0 no effect, 100 complete control), approx. 10 d, read-out: Plant response rating, Ragweed), 60%; in assay [5] (Postemergence, visual injury, 0 to 100 scale (0 no effect, 100 complete control), approx. 10 d, read-out: Plant response rating, Ryegrass, Italian) it was 30%. Further, the plant injury at 125 g/ha in assay [3] (Postemergence, visual rating about 10 d after treatment, read-out: Corn plant response rating (0 to 100 scale)) is 70%. In assay [3] (Postemergence, 500 g ai/ha, visual injury, 0 to 100 scale (0 no effect, 100 complete control), approx. 10 d), this molecule displayed a Corn plant response rating (crop injury, 0 = no effect, 100 = complete kill) at 500 g/ha of 70%.
With `O=C1NC[C@H](c2cc(F)c(F)c(F)c2)[C@H]1C(=O)Nc1ccc(F)c(F)c1F` [Compound 756], the pest or weed control at 125 g/ha amounted to 90% in assay [1] (postemergence, visual injury after approximately 10 d, 0 to 100 scale (0 no effect, 100 complete control), read-out: Plant response rating, Barnyardgrass); 0% in assay [2] (postemergence, visual injury after approximately 10 d, 0 to 100 scale (0 no effect, 100 complete control), read-out: Plant response rating, Blackgrass); 20% in assay [4] (postemergence, visual injury after approximately 10 d, 0 to 100 scale (0 no effect, 100 complete control), read-out: Plant response rating, Ragweed); 40% in assay [5] (postemergence, visual injury after approximately 10 d, 0 to 100 scale (0 no effect, 100 complete control), read-out: Plant response rating, Ryegrass, Italian). This molecule showed a Corn plant response rating (crop injury, 0 = no effect, 100 = complete kill) at 125 g/ha in assay [3] (postemergence, 0 to 100 scale (0 no effect, 100 complete control)) of 50%.
As to `N#Cc1cc([C@H]2CNC(=O)[C@@H]2C(=O)Nc2ccccc2F)ccc1F` [Compound 1199], the pest or weed control at 125 g/ha in assay [1] (setting [6]) came to 70%; in assay [2] (setting [8]) it was 0%; in assay [4] (setting [12]), 0%; in assay [5] (setting [14]), 0%. Further, the pest or weed control at 500 g/ha in assay [1] (setting [7]) is 100%; in assay [2] (setting [9]), 0%; in assay [4] (setting [13]), 0%; in assay [5] (setting [15]), 20%. Further, the plant injury at 125 g/ha in assay [3] (setting [10]) was determined as 0%. The plant injury at 500 g/ha in assay [3] (setting [11]) turned out to be 0%.
